The values that follow are results of earlier work, collected in patent publication US5525347A, “Composition and methods for treating performance anxiety” (Medical University of South Carolina, priority 1995, dated 1996).

The subject of one data set is social phobia. The following applies: case reports; 10-120 mg.
Experiment in data set [1]: not given
The source holds these as a separate data set.

Structures can show the parent of a compound that is named as a salt.

Consider `CC(C)NCC(O)COc1cccc2ccccc12` (stereo not shown) [Propranolol Hydrochloride, 1-(Isopropylamino)-3-(1-napthyloxy)-2-propanol hydrochloride], for which the “efficacy in social phobia” value in the data set on social phobia is listed as “suggest efficacy”. Moreover, the “Solubility in chloroform” value (chloroform) is reported as “slightly soluble”. Also, the Solubility in ether entry (ether) is given as “practically insoluble”. Where the note is “volume of alcohol for 1 g”, the Solubility in alcohol is 20 mL. Moreover, where the note is “volume of water for 1 g”, the Solubility in water was 20 mL. In addition, in data set [1] (heat), the stability to heat result is on record as “stable to heat”. Also, in data set [1] (light), the stability in light entry is “unstable in light”.
